Experimental data: patent US12077513B2, “Process route of compound of formula (IV), crystal form and preparation method therefor” (SHANDONG DANHONG PHARMACEUTICAL CO., LTD., priority 2018, dated 2024)
Blank lines part the entries; values can stand above or below the molecule they belong to.

Experiments:
[1] = Solid stability test, crystal form characterized by XRPD; type: physicochemical
Method: An electronic balance was used to accurately weigh 60 mg sample of crystal form B of compound (IV) (3 samples in parallel for each stability test condition). The samples were placed in a dry and clean 5 mL beaker and spread into a thin layer. The aluminum foil was pierced with holes and placed on the beaker, fixed with rubber bands. The beaker was placed in tbc environment of various stability test conditions and remained for sampling at investigation time. The samples were investigated at 60° C. (5 days, 10 days), 25° C./92.5% RH (5 days, 10 days), 40° C./75% RH (one month, two months, three months), 60° C./75% RH (one month, two months) and light (10 days) conditions. X-ray powder diffraction (XRPD) was used to characterize the solid under various conditions.

VAP-1/SSAO cell = VAP-1/SSAO cell (Homo sapiens (Human), UniProt Q16853); experiment: VAP-1 cell activity assay (HUVEC or CHO cells transfected with VAP-1/pCDNA (3.1) plasmid, Amplex Red); type: cell-based; details: for Inhibitory activity against VAP-1/SSAO cells (conclusion in words): in vitro
VAP-1/SSAO cell, sequence (Q16853 whole entry): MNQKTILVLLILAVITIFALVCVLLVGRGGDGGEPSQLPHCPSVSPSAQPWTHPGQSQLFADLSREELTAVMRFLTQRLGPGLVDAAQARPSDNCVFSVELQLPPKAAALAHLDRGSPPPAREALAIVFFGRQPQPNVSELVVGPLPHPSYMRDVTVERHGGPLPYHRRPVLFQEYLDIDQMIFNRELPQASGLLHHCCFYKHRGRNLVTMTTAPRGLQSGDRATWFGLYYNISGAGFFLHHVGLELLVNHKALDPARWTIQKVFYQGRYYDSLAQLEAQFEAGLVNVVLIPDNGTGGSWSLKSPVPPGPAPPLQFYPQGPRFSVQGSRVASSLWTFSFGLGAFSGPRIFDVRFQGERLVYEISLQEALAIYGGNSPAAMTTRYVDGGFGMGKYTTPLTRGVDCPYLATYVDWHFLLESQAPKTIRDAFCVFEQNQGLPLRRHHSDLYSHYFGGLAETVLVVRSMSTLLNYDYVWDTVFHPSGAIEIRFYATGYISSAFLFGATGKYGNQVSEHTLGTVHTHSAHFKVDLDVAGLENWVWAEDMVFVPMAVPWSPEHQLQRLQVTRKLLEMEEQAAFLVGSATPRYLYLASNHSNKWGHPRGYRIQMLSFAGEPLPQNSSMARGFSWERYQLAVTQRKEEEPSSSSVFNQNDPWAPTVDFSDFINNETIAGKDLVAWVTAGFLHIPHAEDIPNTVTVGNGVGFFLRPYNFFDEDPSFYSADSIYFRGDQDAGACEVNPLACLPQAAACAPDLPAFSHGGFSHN
Method: Amplex® Red Monoamine Oxidase Kit (Invitrogen #A12214) was used to determine the inhibitory effect of the sample on VAP-1 enzyme activity.
The HUVEC or CHO cells were plated onto a 6-well plate at a density of 0.8M/well, placed in a 37° C., 5% CO2 incubator for 24 hours, and then transfected with Lipo2000 reagent and VAP-1/pCDNA (3.1) plasmid. The medium was changed after 5 h (Lipo2000 is toxic to cells). After 24 h, the cells digested and plated into a 384-well plate at a density of 25 μl, 10000 cells/well, 6-7 h, and the cell medium was changed to the medium without FBS and the cell plate was placed in a 37° C. 5% CO2 incubator overnight.
• 1) Compound dilution: 4-fold serial dilution with 100% DMSO and diluted at 10 points. The initial concentration of the test compound was 0.5 mM (final concentration was […]); ECHO was used to transfer 100 nL of the compound solution to a 384-well cell detection plate. Negative control well: 100 nL DMSO; background control well: 100 nL DMSO+25 μL medium. • 2) Reaction was kept for 30 minutes at room temperature and protected from light. • 3) Amplex Red reagent+HRP+benzylamine substrate working solution preparation: • Amplex Red reagent+HRP+benzylamine substrate working solution (200 μM Amplex Red reagent+1 U/mL HRP+1 mM benzylamine): 45 μL of 20 mM Amplex Red reagent mother liquor, 22.5 μL of 200 U/mL horseradish peroxidase (HRP) mother liquor and 45 μL of 100 mM benzylamine were added to 4.3875 mL of 1× reaction buffer. • 4) After 30 minutes, 25 μL of the substrate working solution was added to a 384-well plate. […]

[2] = biological target: Human recombinant VAP-1/SSAO enzyme (Homo sapiens (Human), UniProt Q16853); experiment: Human VAP-1 enzyme activity assay (Amplex Red Monoamine Oxidase Kit); type: biochemical; details: for Inhibitory activity against human recombinant VAP-1/SSAO enzyme (conclusion in words): in vitro
Human recombinant VAP-1/SSAO enzyme, sequence (Q16853 whole entry): as above
Method: Human VAP-1 Enzyme Activity Assay:
Amplex® Red Monoamine Oxidase Kit (Invitrogen #A12214) was used to determine the inhibitory effects of the sample on VAP-1 enzyme activity. 100 nL Test compound (the solvent was DMSO) that had been gradiently diluted was added to a 384-well plate. 25 μL 10 nM VAP-1 enzyme solution was added, and the solution was incubated at room temperature for 30 minutes. The substrate mixture which had been added […] (200 μM Amplex Red, 1 U/mL HRP, 1 mM Benzylamine) was incubated at room temperature for 60 minutes. After the incubation, the fluorescence signal was read with a microplate reader Envision (excitation light wavelength 530-560 nm, emission light wavelength 590 nm). The fluorescence signal value after removing the background signal was analyzed with Prism software. The IC50 of the sample to the VAP-1 enzyme was calculated.

[3] = listed as crystal form B of the compound of formula (IV)

- Stability (general statement in words) [1]: good stability
SMILES: CC(C)n1nc(-c2ccc(OC/C(=C/F)CN)cc2)nc1C1CC1 [Crystal form A]

- IC50 (VAP-1/SSAO cell; VAP-1 transfected HUVEC or CHO cells, read-out: VAP-1/SSAO cell activity assay test IC50): 2.2 ± 1.49 nM
- Inhibitory activity against VAP-1/SSAO cells (conclusion in words) (VAP-1/SSAO cell; [3]): strong inhibitory activity
- IC50 ([2]; 30 min preincubation, benzylamine substrate, read-out: Human recombinant VAP-1/SSAO enzyme inhibitory activity IC50): 0.71 ± 0.21 nM
- Inhibitory activity against human recombinant VAP-1/SSAO enzyme (conclusion in words) [2, 3]: strong inhibitory activity
SMILES: CC(C)n1nc(-c2ccc(OC/C(=C/F)CN)cc2)nc1C1CC1

- Inhibitory activity against VAP-1/SSAO cells (conclusion in words) (VAP-1/SSAO cell): strong inhibitory activity
- Inhibitory activity against human recombinant VAP-1/SSAO enzyme (conclusion in words) [2]: strong inhibitory activity
SMILES: CC(C)n1nc(-c2ccc(OC/C(=C/F)CN)cc2)nc1C1CC1 [Compound of formula (IV)]
